“And” between values parts separate entries of the source, which are not always exact repeats. Equal entries are not always repeated. The source made the active and inactive calls.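 Rule for the calls: active = compounds giving half or more protection of infected cells from virus-caused growth loss, again on retest; inactive = the rest.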 Where a SMILES comes first, the peptide text is derived from it.
Test system: CEM cells HIV-1 protection, formazan growth assay
Assay: NCI AIDS Antiviral Assay
Details: for IC50: measured here: growth of uninfected CEM cells
Outline: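 CEM (human) cells, HIV-1 infected vs uninfected, 5-point dosing, formazan growth read-out. Retest threshold 50% protection.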

SMILES: COC(OC)C1OC(CO)C(n2cc(F)c(=O)[nH]c2=O)C1O (centres undefined)
- EC50: > 200 µM
- IC50: > 200 µM

SMILES: COC1OC(=O)C(OC)C(OC)C1OC (centres undefined)
- outcome: inactive

SMILES: CCOC(=O)C(/C(=N/NC(=O)OC)C(=O)Nc1ccc(C(C)=O)cc1)c1cnc2ccccc2n1 (centres undefined)
- EC50: > 39.8 µM
- IC50: > 39.8 µM

SMILES: Cc1cccc(-n2cc(C#N)c3c(C)cc(C)nc32)c1
- EC50: > 100 µM
- IC50: > 100 µM

SMILES: Cc1cc(=O)n2c(nc3cc(C)c(C)cc32)s1
- EC50: > 200 µM
- IC50: > 200 µM

SMILES: CC(=O)n1c(=O)c2cc3c(=O)n(-c4cccc(C#N)c4)c(=O)c3cc2c1=O
- outcome: inactive

SMILES: CC(=O)n1[nH]c(=O)n(-c2ccc(Cl)cc2)c1=O
- EC50: > 200 µM
- IC50: > 200 µM

SMILES: COC(OC)/C(C)=N/NC1=Nc2ccc(Cl)cc2C(c2ccccc2Cl)=NC1
- EC50: > 12.3 µM
- IC50: > 12.3 µM

SMILES: O=C(Nc1nc(C23CC4CC(CC(C4)C2)C3)cs1)c1cc2ccc(O)cc2oc1=O
- EC50: > 200 µM
- IC50: 7.41 µM

SMILES: CS1(C)=NC(=O)C2=C(N=1)c1ccccc1S2(=O)=O
- EC50: > 47.9 µM
- IC50: > 47.9 µM

SMILES: CC1SC(=O)SC1C (centres undefined)
- EC50: > 1700 µM
- IC50: > 1700 µM

SMILES: Cn1c2ccccc2c(=O)c2c(O)cc3c(c21)C1OCC(C)(O)C1O3 (centres undefined)
- EC50: > 200 µM
- IC50: 33.9 µM

SMILES: COc1ccc(/C=c2/sc3n(c2=O)NC2(CCC(C)CC2)NN=3)cc1 (centres undefined)
- outcome: inactive

SMILES: O=C(NCCn1ccnn1)Nc1ccccc1
- EC50: > 200 µM
- IC50: > 200 µM

SMILES: CC(C)N(C(=O)C12C3(C(=O)C(C)(C)C)C4C5(C#N)C3C1(C(=O)C(C)(C)C)C5C42C(=O)C(C)(C)C)C(C)C (centres undefined)
- EC50: > 151 µM
- IC50: > 151 µM

SMILES: CSc1n[nH]c(N)c1C(=O)Nc1ccccc1
- EC50: > 186 µM
- IC50: 117 µM

SMILES: CCCCCCCCCCCCNC(=O)C(O)C(O)C(O)C(COS(=O)(=O)O)OS(=O)(=O)O (centres undefined)
- EC50: > 200 µM
- IC50: 30.2 µM

SMILES: CC(=O)OC1CC2(C)OC(Cc3ccccc32)O1 (centres undefined)
- EC50: > 200 µM
- IC50: > 200 µM

SMILES: C[N+]12CCC34c5ccccc5NC3C3C(CC(=O)[O-])OCC=C(C1)C3CC42 (centres undefined)
- outcome: inactive

SMILES: O=c1ccn(COC(COCc2ccccc2)COCc2ccccc2)c(=O)[nH]1
- outcome: inactive

SMILES: CCCCN(CC)C(=O)C1=C(C)NC(C)=C(C(=O)N(CC)CCCC)C1
- EC50: > 200 µM
- IC50: 135 µM

SMILES: CCn1c(=O)ccc2ccc(N(CCO)CCO)nc21
- EC50: > 200 µM
- IC50: 151 µM

SMILES: CC(=O)c1ccc(Cc2ccc(C(C)=O)s2)s1
- EC50: > 200 µM
- IC50: > 200 µM

SMILES: c1ccc(CSC(SCc2ccccc2)(c2ccccc2)c2ccccc2)cc1
- EC50: > 200 µM
- IC50: 102 µM and > 100 µM

SMILES: O=[N+]([O-])c1ccc([I+]c2ccccc2)cc1
- EC50: > 200 µM
- IC50: 2.57 µM

SMILES: CC(=O)OC1COC(n2c(=S)n(-c3ccccc3)c(=O)c3ccccc32)C(OC(C)=O)C1OC(C)=O (centres undefined)
- EC50: > 36.3 µM
- IC50: > 36.3 µM

SMILES: O=C(/C=N/O)Nc1cccc(Cl)c1I
- EC50: > 110 µM
- IC50: 93.3 µM

SMILES: CN1CCN(C(=S)N(C(=O)c2ccco2)C2CCCCC2)CC1
- EC50: > 741 µM
- IC50: 631 µM

SMILES: COc1ccc2cc(C(=O)NCCCNC(=O)c3ccc4c(OC)c(OC)ccc4c3)ccc2c1OC
- EC50: > 200 µM
- IC50: > 200 µM

SMILES: N#C/C(=C/c1ccc[nH]1)P(=O)(O)O
- EC50: > 1260 µM
- IC50: 724 µM

SMILES: CNC(=S)N/N=C(\C)c1ccc(OC)cc1O
- EC50: > 200 µM
- IC50: 13.8 µM

SMILES: CC1(C)CS(=O)(=O)CC(C)(C)C(=N/N)/C1=N\N
- EC50: > 200 µM
- IC50: > 200 µM

SMILES: COc1cc2oc3c(C)c(=O)cc4oc(-c5ccccc5)cc(c2c2c1CCC(c1ccccc1)O2)c43 (centres undefined)
- EC50: > 4.07 µM
- IC50: > 4.07 µM

SMILES: CCOC(=O)C1(C)CCc2sc(N)c(C#N)c21 (centres undefined)
- EC50: 83.2 µM
- IC50: 158 µM

SMILES: CC(=O)NC(C(=O)N1CCCC1C(=O)O)C(C)C (stereo not drawn) (Ac-Val-Pro-OH; configuration not given here)
- EC50: > 200 µM
- IC50: > 200 µM

SMILES: CC(C)C12C=C3CCC4C(C)(C(=O)O)CCCC4(C)C3(CC1)OO2 (centres undefined)
- EC50: > 741 µM
- IC50: 162 µM

SMILES: Cc1ccc(C2(c3ccc(F)cc3)OC(=O)c3ccccc32)c(O)c1 (centres undefined)
- outcome: inactive

SMILES: Cc1ccc(S(=O)(=O)C2c3nc4ccccc4cc3-c3nc4ccccc4nc32)cc1 (centres undefined)
- EC50: > 32.4 µM
- IC50: > 32.4 µM

SMILES: Cc1nc(C(N)=S)sc1C(=O)CC(=O)C(=O)Nc1cccc(Cl)c1C
- EC50: > 170 µM
- IC50: > 170 µM

SMILES: Cc1c(=O)n(O)c2ccccc2[n+]1[O-]
- EC50: > 200 µM
- IC50: > 200 µM

SMILES: NC(=O)C1CCCN1C(=O)N(CCCl)N=O (centres undefined)
- EC50: > 200 µM
- IC50: > 200 µM

SMILES: CCC/C(Cl)=N\OC(=O)Nc1ccc(F)c([N+](=O)[O-])c1
- EC50: > 200 µM
- IC50: 9.12 µM

SMILES: CCC(C)C(NC(=O)C(CCC(N)=O)NC(=O)C(CCC(N)=O)NC(=O)C(CO)NC(=O)C(CC(C)C)NC(=O)C(CC(N)=O)NC(=O)C(N)C(C)O)C(=O)NC(CO)C(=O)NC(CO)C(=O)NC(CC(N)=O)C(=O)O (centres undefined) (H-TNLSQQISSN-OH; configuration not given here)
- EC50: > 28.8 µM
- IC50: > 28.8 µM

SMILES: COC(=O)c1ccccc1C1CN=NC12Cc1ccc3ccccc3c1C2=O (centres undefined)
- EC50: > 200 µM
- IC50: > 200 µM

SMILES: Nc1ccc(C(=O)N2CCC[C@H]2CO)c(N)c1
- EC50: > 200 µM
- IC50: > 200 µM

SMILES: C=CCOc1ccccc1N=N/C(C#N)=N\Nc1ccccc1OCC=C
- EC50: > 200 µM
- IC50: 110 µM

SMILES: CC(C)(C)C1=CC(O)(c2c3ccccc3c(C3(O)C=C(C(C)(C)C)C(=O)C(C(C)(C)C)=C3)c3ccccc23)C=C(C(C)(C)C)C1=O
- EC50: > 100 µM
- IC50: > 100 µM

SMILES: Cc1cccc(CC(Cc2ccc(C)cc2C(=O)O)C(=O)O)c1 (centres undefined)
- EC50: > 200 µM
- IC50: > 200 µM

SMILES: Cc1nc(C)c(Cc2ccccc2)o1
- EC50: > 200 µM
- IC50: > 200 µM

SMILES: COC(=O)[C@@H](NC1(c2ccccc2)c2ccccc2-c2ccccc21)[C@H](OC(=O)[C@H]1CCCN1S(=O)(=O)c1ccccc1)C(=O)OC
- EC50: > 200 µM
- IC50: 9.33 µM

SMILES: C/C=C(\C)C(=O)O[C@@H]1CC(C)(C)CC2C3=CCC4[C@]56CC[C@](O)(OC5)C(C)(C)C6CC[C@@]4(C)C3(C)CC[C@]21C(=O)O (some centres undefined)
- EC50: > 200 µM
- IC50: 18.2 µM

SMILES: O=C1C2C(C(=O)N1c1ccccc1)C1(c3ccccc3)CCC2(C(=O)c2ccccc2)O1 (centres undefined)
- EC50: > 200 µM
- IC50: 50.1 µM

SMILES: CCCCCCCCCCCCCCCCCC(=O)OCCO
- outcome: inactive

SMILES: COC(=O)C1=NN2c3ccccc3C(=O)OCCC2C1 (centres undefined)
- EC50: > 200 µM
- IC50: > 200 µM

SMILES: CN(C)c1ccc(C=Cc2ccc([N+](=O)[O-])cc2)cc1.[C-]#[O+].[C-]#[O+].[C-]#[O+].[Cr]
- EC50: > 20 µM
- IC50: 2.4 µM

SMILES: Cc1cc(S(=O)(=O)n2ccnc2Oc2ccc(N)cc2)c(SSc2cc(Cl)c(C)cc2S(=O)(=O)n2ccnc2Oc2ccc(N)cc2)cc1Cl
- EC50: > 100 µM
- IC50: 21.9 µM

SMILES: COc1cc2c(c([N+](=O)[O-])c1)NC(=O)CS2
- EC50: > 200 µM
- IC50: 79.4 µM

SMILES: COc1c(Br)cc2ccccc2c1-c1c(OC)c(Br)cc2ccccc12
- EC50: 17.4 µM
- IC50: > 100 µM

SMILES: CCN(CC)CC1CCCCN1CC(=O)N1c2ccc(Br)cc2C(=O)Nc2cccnc21 (centres undefined)
- EC50: > 200 µM
- IC50: > 200 µM

SMILES: Cc1cccc(C)c1NC(=O)C1=NC(=S)NC(c2ccccc2)C1c1nc2ccccc2s1 (centres undefined)
- outcome: inactive

SMILES: COC(=O)C1CCCN1C(=O)C(Cc1cn(S(=O)(=O)c2ccc(C)cc2)cn1)NC(=O)OC(C)(C)C (centres undefined)
- EC50: > 200 µM
- IC50: > 200 µM
